Data from US20240228482A1, “COMPOUNDS, COMPOSITIONS AND METHODS OF TREATING CANCER” (HOTSPOT THERAPEUTICS, INC., priority 2021, published 2024).

biological target: T1, CBL-B (Homo sapiens, UniProt Q13191); assay: CBL-B TR-FRET IC50 screening (E1/E2 ubiquitination, Biotin-Ubiquitin, Anti GST-Tb donor / Streptavidin-d2 acceptor); type: biochemical; settings: CBL-B 10 nM final; 11-point titration from 100 uM; binned A-F; read-out: CBL-B TR-FRET activity IC50
T1 construct: GST
T1 sequence (Q13191 whole entry): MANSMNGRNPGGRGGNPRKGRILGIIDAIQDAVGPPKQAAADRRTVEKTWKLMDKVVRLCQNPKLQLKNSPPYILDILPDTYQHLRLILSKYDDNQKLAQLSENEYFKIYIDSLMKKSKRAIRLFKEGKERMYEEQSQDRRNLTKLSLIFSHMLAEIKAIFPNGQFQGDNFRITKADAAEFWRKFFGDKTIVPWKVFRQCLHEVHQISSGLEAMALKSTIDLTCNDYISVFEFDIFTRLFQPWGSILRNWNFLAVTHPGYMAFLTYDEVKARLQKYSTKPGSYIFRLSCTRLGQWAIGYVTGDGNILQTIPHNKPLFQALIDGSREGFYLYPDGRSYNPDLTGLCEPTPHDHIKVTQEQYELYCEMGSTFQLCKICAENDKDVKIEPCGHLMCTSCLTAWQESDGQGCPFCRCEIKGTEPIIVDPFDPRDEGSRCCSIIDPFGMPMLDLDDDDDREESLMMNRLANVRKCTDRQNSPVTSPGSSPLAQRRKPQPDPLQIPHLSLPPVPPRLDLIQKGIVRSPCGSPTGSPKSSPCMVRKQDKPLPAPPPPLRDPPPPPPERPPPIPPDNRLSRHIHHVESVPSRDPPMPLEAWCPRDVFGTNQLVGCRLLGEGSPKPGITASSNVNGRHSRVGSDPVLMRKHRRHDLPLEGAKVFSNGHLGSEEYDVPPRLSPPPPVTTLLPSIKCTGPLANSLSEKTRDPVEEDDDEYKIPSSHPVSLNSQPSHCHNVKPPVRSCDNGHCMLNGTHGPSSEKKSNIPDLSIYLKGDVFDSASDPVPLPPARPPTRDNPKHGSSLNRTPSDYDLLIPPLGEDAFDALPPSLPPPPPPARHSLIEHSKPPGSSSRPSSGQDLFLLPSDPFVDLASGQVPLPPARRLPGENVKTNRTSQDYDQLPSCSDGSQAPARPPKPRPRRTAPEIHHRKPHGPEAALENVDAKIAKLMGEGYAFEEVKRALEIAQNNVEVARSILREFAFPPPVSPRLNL

IC50	Compound
1000 to 3000 nM	C[C@H]1CCCN1Cc1cc(C(F)(F)F)c2cn(-c3cccc([C@@H](c4nncn4C)C4CCC4)c3)c(=O)n2c1 [Compound 380_P1]
< 100 nM	C[C@H]1CCCN1Cc1cc(C(F)(F)F)c2cn(-c3cccc([C@H](c4nncn4C)C4CCC4)c3)c(=O)n2c1 [Compound 380_P2]
1000 to 3000 nM	C[C@@H]1CCCN1Cc1cc(C(F)(F)F)c2cn(-c3cccc([C@@H](c4nncn4C)C4CCC4)c3)c(=O)n2c1 [Compound 381_P1]
< 100 nM	C[C@@H]1CCCN1Cc1cc(C(F)(F)F)c2cn(-c3cccc([C@H](c4nncn4C)C4CCC4)c3)c(=O)n2c1 [Compound 381_P2]
< 100 nM	COC[C@@H]1CCCN1Cc1cc(C(F)(F)F)c2cn(-c3cccc([C@@H](c4nncn4C)C4CCC4)c3)c(=O)n2c1 [Compound 382_P1]
1000 to 3000 nM	COC[C@@H]1CCCN1Cc1cc(C(F)(F)F)c2cn(-c3cccc([C@H](c4nncn4C)C4CCC4)c3)c(=O)n2c1 [Compound 382_P2]

same assay, conditions: Updated Activity, second part of Table 2 (head 'Patent Cmpd No / Updated Activity'); same CBL-B TR-FRET IC50 bins A-F

Compound	IC50
C[C@H]1CCCN(Cc2cc(C(F)(F)F)c3cn(-c4cccc(C5(c6nncn6C)CC(C)(C)C5)c4)c(=O)n3c2)C1 [Compound 433]	< 100 nM

same assay, conditions: second part of Table 2 (head 'Patent Cmpd No / Updated Activity'); same CBL-B TR-FRET IC50 bins A-F; read-out: Updated Activity

IC50	Compound
> 10000 nM	C[C@H]1CCCN(Cc2cc(C(F)(F)F)c3cn(-c4cccc([C@H](c5nncn5C)C5CNC5)c4)c(=O)n3c2)C1 [Compound 403]
< 100 nM	COC1CCN(Cc2cc(C(F)(F)F)c3cn(-c4cccc([C@H](c5nncn5C)C5COC5)c4)c(=O)n3c2)CC1 [Compound 415]
< 100 nM	C[C@@H]1C[C@H](C)CN(Cc2cc(C(F)(F)F)c3cn(-c4cccc([C@H](c5nncn5C)C5CCC5)c4)c(=O)n3c2)C1 [Compound 449]
< 100 nM	Cn1cnnc1[C@@H](c1cccc(-n2cc3c(C(F)(F)F)cc(CN4CCCOC4=O)cn3c2=O)c1)C1CCC1 [Compound 467]
< 100 nM	Cn1cnnc1[C@@H](c1cccc(-n2cc3c(C(F)(F)F)cc(CN4CCOC4=O)cn3c2=O)c1)C1CCC1 [Compound 468]
> 10000 nM	C[C@H]1CCCN(Cc2cc(C(F)(F)F)c3cn(-c4cccc([C@H](c5nncn5C)C5CN(C)C5)c4)c(=O)n3c2)C1 [Compound 470_P1]
> 10000 nM	C[C@H]1CCCN(Cc2cc(C(F)(F)F)c3cn(-c4cccc([C@@H](c5nncn5C)C5CN(C)C5)c4)c(=O)n3c2)C1 [Compound 470_P2]
100 to 300 nM	C[C@H]1CCCN(Cc2cc(C(F)(F)F)c3cn(-c4cccc([C@@H](c5nncn5C)C5CC5)c4)c(=O)n3c2)C1 [Compound 472_P1]
< 100 nM	C[C@H]1CCCN(Cc2cc(C(F)(F)F)c3cn(-c4cccc([C@H](c5nncn5C)C5CC5)c4)c(=O)n3c2)C1 [Compound 472_P2]
< 100 nM	CN1CCCN(Cc2cc(C(F)(F)F)c3cn(-c4cccc([C@H](c5nncn5C)C5CCC5)c4)c(=O)n3c2)C1=O [Compound 482]
< 100 nM	CN1CCN(Cc2cc(C(F)(F)F)c3cn(-c4cccc([C@H](c5nncn5C)C5CCC5)c4)c(=O)n3c2)C1=O [Compound 483]
< 100 nM	[2H]C([2H])(c1cc(C(F)(F)F)c2cn(-c3cccc([C@H](c4nncn4C)C4CCC4)c3)c(=O)n2c1)N1CCC[C@H](C)C1 [Compound 487]
< 100 nM	C[C@H]1COCCN1Cc1cc(C(F)(F)F)c2cn(-c3cccc([C@H](c4nncn4C)C4CCC4)c3)c(=O)n2c1 [Compound 488]
< 100 nM	C[C@@H]1COCCN1Cc1cc(C(F)(F)F)c2cn(-c3cccc([C@H](c4nncn4C)C4CCC4)c3)c(=O)n2c1 [Compound 489]
< 100 nM	C[C@@H]1CCCN(Cc2cc(C(F)(F)F)c3cn(-c4cccc([C@H](c5nncn5C)C5CCC5)c4)c(=O)n3c2)C1 [Compound 491]
< 100 nM	CN1C(=O)CCN1Cc1cc(C(F)(F)F)c2cn(-c3cccc([C@H](c4nncn4C)C4CCC4)c3)c(=O)n2c1 [Compound 498]
< 100 nM	Cn1cnnc1[C@@H](c1cccc(-n2cc3c(C(F)(F)F)cc(CN4CCC5(CC4)CC5)cn3c2=O)c1)C1CCC1 [Compound 503]
< 100 nM	COC[C@@H]1CCN1Cc1cc(C(F)(F)F)c2cn(-c3cccc([C@H](c4nncn4C)C4CCC4)c3)c(=O)n2c1 [Compound 507]
< 100 nM	COC(=O)CN(C)Cc1cc(C(F)(F)F)c2cn(-c3cccc([C@H](c4nncn4C)C4CCC4)c3)c(=O)n2c1 [Compound 521]

Further lines, the molecule ahead of its results:

Compound	IC50
COC(=O)N1CCC(c2cc(C(F)(F)F)c3cn(-c4cccc([C@H](c5nncn5C)C5CCC5)c4)c(=O)n3c2)CC1 [Compound 395]	100 to 300 nM
CC(=O)N1CCC(c2cc(C(F)(F)F)c3cn(-c4cccc([C@H](c5nncn5C)C5CCC5)c4)c(=O)n3c2)CC1 [Compound 398]	< 100 nM
Cn1cnnc1[C@H](c1cccc(-n2cc3c(C(F)(F)F)cccn3c2=O)c1)C1CCC1 [Compound 401_P1]	< 100 nM
Cn1cnnc1[C@@H](c1cccc(-n2cc3c(C(F)(F)F)cccn3c2=O)c1)C1CCC1 [Compound 401_P2]	> 10000 nM
C[C@@H]1CN(Cc2cc(C(F)(F)F)c3cn(-c4cccc([C@H](CC5CCC5)c5nncn5C)c4)c(=O)n3c2)CCO1 [Compound 402]	> 10000 nM
Cn1cnnc1[C@@H](c1cc(-n2cc3c(C(F)(F)F)cccn3c2=O)cs1)C1CCC1 [Compound 403_P1]	> 10000 nM
Cn1cnnc1[C@H](c1cc(-n2cc3c(C(F)(F)F)cccn3c2=O)cs1)C1CCC1 [Compound 403_P2]	301 to 1000 nM
Cn1cnnc1[C@@H](c1cccc(-n2cc3c(C(F)(F)F)cc(CN4CCC5(CC5)C4)cn3c2=O)c1)C1COC1 [Compound 412]	< 100 nM
Cn1cnnc1[C@@H](c1cccc(-n2cc3c(C(F)(F)F)cc(CN4CCC(C)(F)CC4)cn3c2=O)c1)C1COC1 [Compound 413]	< 100 nM
Cn1cnnc1[C@@H](c1cccc(-n2cc3c(C(F)(F)F)cc(CN4CCC(F)CC4)cn3c2=O)c1)C1COC1 [Compound 414]	< 100 nM
C[C@@H]1CCCN(Cc2cc(C(F)(F)F)c3cn(-c4cccc(C5(Cc6nncn6C)COC5)c4)c(=O)n3c2)C1 [Compound 416]	< 100 nM
Cn1cnnc1[C@@H](c1cccc(-n2cc3c(C(F)(F)F)cc(C(=O)N4CCC5(CC5)C4)cn3c2=O)c1)C1CCC1 [Compound 429]	100 to 300 nM
Cn1cnnc1[C@@H](c1cccc(-n2cc3c(C(F)(F)F)cc(C(=O)N4CCC(C)(F)CC4)cn3c2=O)c1)C1CCC1 [Compound 430]	301 to 1000 nM
C[C@H]1CCCN(Cc2cc(C(F)(F)F)c3cn(-c4cccc(Cc5cccnn5)c4)c(=O)n3c2)C1 [Compound 431]	> 10000 nM
C[C@@H]1CN(Cc2cc(C(F)(F)F)c3cn(-c4cccc(C5(c6nncn6C)CCC5)c4)c(=O)n3c2)CCO1 [Compound 432]	> 10000 nM
CC(=O)N1CC([C@@H](c2cccc(-n3cc4c(C(F)(F)F)cc(CN5CCC[C@H](C)C5)cn4c3=O)c2)c2nncn2C)C1 [Compound 434_P1]	> 10000 nM
CC(=O)N1CC([C@H](c2cccc(-n3cc4c(C(F)(F)F)cc(CN5CCC[C@H](C)C5)cn4c3=O)c2)c2nncn2C)C1 [Compound 434_P2]	1000 to 3000 nM
Cn1cnnc1C1(c2cccc(-n3cc4c(C(F)(F)F)cc(CN5CCC6(CC6)C5)cn4c3=O)c2)CCC1 [Compound 450]	< 100 nM

Compound	IC50
Cn1cnnc1C1(c2cccc(-n3cc4c(C(F)(F)F)cc(CN5CC6(CC6)C5)cn4c3=O)c2)CCC1 [Compound 451]	< 100 nM
C[C@H]1CCCN(Cc2cc(C(F)(F)F)c3cn(-c4cccc(C(=C5CCC5)c5nncn5C)c4)c(=O)n3c2)C1 [Compound 466]	< 100 nM
COC(=O)N(C)Cc1cc(C(F)(F)F)c2cn(-c3cccc([C@H](c4nncn4C)C4CCC4)c3)c(=O)n2c1 [Compound 469]	< 100 nM
Cn1cnnc1C1(c2cccc(-n3cc4c(C(F)(F)F)cc(CN5CCC(C)(F)CC5)cn4c3=O)c2)CCC1 [Compound 471]	< 100 nM
Cn1cnnc1C1(c2cccc(-n3cc4c(C(F)(F)F)cc(CN5CCc6ncsc6C5)cn4c3=O)c2)CCC1 [Compound 473]	< 100 nM
CN(C)C(=O)N(C)Cc1cc(C(F)(F)F)c2cn(-c3cccc([C@H](c4nncn4C)C4CCC4)c3)c(=O)n2c1 [Compound 484]	< 100 nM
[2H]C([2H])(c1cc(C(F)(F)F)c2cn(-c3cccc(C4(Cc5nncn5C)COC4)c3)c(=O)n2c1)N1CCC[C@H](C)C1 [Compound 490]	< 100 nM
Cn1cnnc1CC1(c2cccc(-n3cc4c(C(F)(F)F)cc(CN5CCC(OCCN)CC5)cn4c3=O)c2)COC1 [Compound 499]	< 100 nM
COCCn1ccnc1-c1cc(C(F)(F)F)c2cn(-c3cccc([C@H](c4nncn4C)C4CCC4)c3)c(=O)n2c1 [Compound 502]	< 100 nM
[2H]C([2H])(c1cc(C(F)(F)F)c2cn(-c3cccc([C@H](c4nncn4C)C4CCC4)c3)c(=O)n2c1)N1CC2(CC2)C1 [Compound 504]	< 100 nM
[2H]C([2H])(c1cc(C(F)(F)F)c2cn(-c3cccc([C@H](c4nncn4C)C4CCC4)c3)c(=O)n2c1)N1CCC2(CC2)C1 [Compound 505]	< 100 nM
C[C@H]1CCCN([C@H](C)c2cc(C(F)(F)F)c3cn(-c4cccc(C5(c6nncn6C)CCC5)c4)c(=O)n3c2)C1 [Compound 506_P1]	< 100 nM
C[C@H]1CCCN([C@@H](C)c2cc(C(F)(F)F)c3cn(-c4cccc(C5(c6nncn6C)CCC5)c4)c(=O)n3c2)C1 [Compound 506_P2]	< 100 nM
CN(Cc1cc(C(F)(F)F)c2cn(-c3cccc([C@H](c4nncn4C)C4CCC4)c3)c(=O)n2c1)S(C)(=O)=O [Compound 520]	< 100 nM
CN(CC(=O)O)Cc1cc(C(F)(F)F)c2cn(-c3cccc([C@H](c4nncn4C)C4CCC4)c3)c(=O)n2c1 [Compound 522]	< 100 nM
CN1CCC2(CCN(Cc3cc(C(F)(F)F)c4cn(-c5cccc([C@H](c6nncn6C)C6CCC6)c5)c(=O)n4c3)CC2)C1=O [Compound 523]	< 100 nM
Cn1cnnc1[C@@H](c1cccc(-n2cc3c(C(F)(F)F)cc(CN4CCC5(CCO5)CC4)cn3c2=O)c1)C1CCC1 [Compound 524]	< 100 nM
Cn1cnnc1[C@@H](c1cccc(-n2cc3c(C(F)(F)F)cc(CN4CCC5(CC4)COC5)cn3c2=O)c1)C1CCC1 [Compound 525]	< 100 nM
